Assay results as given in patent publication US20260199274A1 (priority 2022, published 2026).

Experiments:
[1] = system: IL-6 production; test: hIL-6 ELISA in supernatants of IAV-infected BEAS-2B cells; assay type: cell-based, human
[2] = target: viral polymerase (Influenza A virus, UniProt P03427+P03430+P15659); assay type: cell-based
[3] = system: influenza A/pandemic/2009 H1N1 (H1N1p) strain; assay type: cell-based, influenza A virus
[4] = system: A/Puerto Rico/8/1934 H1N1 (PR8) virus; assay type: cell-based, influenza A virus
[5] = system: influenza B Yamagata (B/Paris/234/2013) virus; test: Plaque-Forming Units assay, BEAS-2B cells infected with IBV; assay type: cell-based; conditions: 3.4 mM for 16 h from 4 h post-infection
[6] = system: ERK, AKT and NF-κB signaling pathways; test: Western blotting of phosphorylated ERK1/2, AKT and p65 in BEAS-2B cells; assay type: cell-based, human
[7] = system: CCL2/MCP-1, CCL5/RANTES, CXCL1/GROa, CXCL10/IP-10, IL-6 and CXCL8/IL-8; test: Protein-array of immune mediators in supernatants of IAV-infected BEAS-2B cells; assay type: cell-based, human; conditions: 3.4 mM
[8] = system: IL-6 production; test: IL-6 ELISA in BEAS-2B cells stimulated with inflammatory agonists (PIC, PMA, TNFα); assay type: cell-based, human; conditions: increasing doses of CA 16 h
[9] = system: BEAS-2B cells; test: BEAS-2B tolerance: Ki67, mitotracker, DHR 123 and Live Dead staining; assay type: cell-based, human
Experimental: (FIG. 8a) Human bronchial epithelial BEAS-2B cells were treated with PBS or with 3.4 mM of cis-aconitate (CA), itaconate (Ita), oxaloacetate (Oxa), isocitrate (IsoC), citrate (Cit), fumarate (Fum), pyruvate (Pyr) or glucose (Glc) for 16 h and cytotoxicity was assessed by MTS assay. BEAS-2B cells were treated (CA+) or not (CA-) with 3.4 mM of CA for 6 or 24 h (FIG. 8b, 8c, 8d) or with 0, 1.2, 2.3 or 3.4 mM of CA for 20 h (FIG. 8e). Cell proliferation (FIG. 8b), mitochondrial labeling (FIG. 8c), ROS production (FIG. 8d) and cell viability (FIG. 8e) were analyzed by Ki67, mitotracker, DHR 123 and Live Dead staining respectively. (FIG. 8f) Human primary bronchial epithelial cells (PBEC) were treated with 0.6, 3.4 or 5.7 mM CA for 16 h and cytotoxicity was assessed by a MTS test. Data are represented as mean±/−SEM of 4 (FIG. 8b-f) or 5 (FIG. 8a) independent experiments. Statistical analysis was performed using the Kruskal-Wallis test with Dunn's multiple comparison test (FIGS. 8a, 8e and 8f) or Friedman test with Dunn's multiple comparison test (FIG. 8b-8d).
Cell proliferation and cytotoxicity assays. Cells in 96-well plates were washed twice with PBS and incubated for 1 h at 37° C. with 100 μL of MTS reagent diluted 1/5 for the cell proliferation test. Optical density was measured at 490 nm. For the cytotoxicity assay, cells were stained for 15 min at 4° C. with Live/Dead or with anti-Ki67, mitotracker and […] flow cytometry analysis.

[10] = system: IL-6 production; test: IL-6 ELISA in PBEC (IAV, poly(I:C) or PMA); assay type: cell-based, human
[11] = system: IAV-triggered cell death; assay type: cell-based, human
[12] = system: IL-6 production; test: hIL-6 in IAV-infected human precision-cut lung slices (PCLS); assay type: cell-based; conditions: 3.4 mM CA 2 hpi, 48 hpi
[13] = system: NF-kB activity / TNFα secretion; test: Murine model of acute lung injury induced by lipopolysaccharide; assay type: in vivo, mice; conditions: 10 μg LPS
Experimental: NF-kB transgenic Balb/c (FIG. 11a, 11b) or C57Bl/6 (FIG. 11c) mice were instilled with 10 μg of lipopolysaccharides (LPS) and treated 15 minutes post-stimulation with 0.6 mg of cis-aconitate (CA) intranasally. 24 h post-instillation, mice were anesthetized. In the group of NF-kB transgenic Balb/c animals, luciferine was intranasally instilled (0.75 mg·kg^−1) and bioluminescence was measured using the IVIS imaging system (FIG. 11a, 11b). In the group of C57Bl/6 mice, BALs fluids were collected to determine TNFα levels (FIG. 11c).). Bioluminescence was then measured using the IVIS system. […] Statistical analysis was performed using the Mann-Whitney test.
Then, we further examined the anti-inflammatory effect of cis-aconitate administered intranasally in a valuable murine model of acute lung injury induced by lipopolysaccharide ([63]), a cell wall component characteristic of Gram-negative bacteria.

[14] = system: Wuhan strain of SARS-CoV-2; test: IL-6 ELISA in Vero epithelial cells infected with SARS-CoV-2 Wuhan strain; assay type: cell-based; conditions: MOI=1, 1 mg/ml cis-aconitate for 16 hours from 4 h post-infection
[15] = system: Delta strain of SARS-CoV-2; assay type: cell-based
[16] = 0.6 mg intranasally every second day for 15 days

SMILES: O=C(O)/C=C(/CC(=O)O)C(=O)O [cis-aconitate]
- IL-6 production, dose-dependent ([1]; BEAS-2B stimulated with IAV MOI=1, increasing doses of CA 16 h): significant decrease
- IL-6 production of IAV-infected epithelial cells ([1]; BEAS-2B, IAV MOI=1, 3.4 mM for 16 h): reduced
- luciferase activity versus concentration [2]: dose-dependent decrease
- reduction of luciferase activity (viral polymerase activity) [2]: ~ 75%
- viral particles production (PFU) [3]: at least one log decrease
- viral particles production (PFU) [4]: at least one log decrease
- viral particles production (PFU) [5]: at least one log decrease
- ERK, AKT and NF-κB signaling pathways [6]: reductions
- accumulation of phosphorylated ERK1/2, Akt and p65 [6]: inhibited
- IAV-induced expression of CCL2/MCP-1, CCL5/RANTES, CXCL1/GROa, CXCL10/IP-10, IL-6 and CXCL8/IL-8 [7]: inhibited
- IL-6 production, dose-dependent ([8]; BEAS-2B stimulated with 20 ng/ml TNFα): trend
- IL-6 production, dose-dependent ([8]; BEAS-2B stimulated with 50 nM PMA): significant decrease
- IL-6 production, dose-dependent ([8]; BEAS-2B stimulated with 2 μg/mL Poly (I:C)): significant decrease
- cell viability (Live Dead) ([9]; BEAS-2B, 0, 1.2, 2.3 or 3.4 mM, 20 h): did not impact
- ROS production (DHR 123) ([9]; BEAS-2B, 3.4 mM, 6 or 24 h): did not impact
- cell proliferation (Ki67) ([9]; BEAS-2B, 3.4 mM, 6 or 24 h): did not impact
- mitochondria accumulation (mitotracker) ([9]; BEAS-2B, 3.4 mM, 6 or 24 h): did not impact
- reduction of IAV-induced hIL-6 production [10]: up to 80%
- pro-inflammatory cytokine (IL-6) expression induced by PMA ([10]; PBEC, PMA 4 h, then CA 20 h): dose-dependent decrease
- pro-inflammatory cytokine (IL-6) expression induced by PIC ([10]; PBEC, poly(I:C) 4 h, then CA 20 h): dose-dependent decrease
- reduction in SYTOX labeling (dead cells) [11]: approximately 70%
- reduction in IL-6 production [12]: twofold
- TNFα secretion in the BAL fluids ([13]; C57Bl/6 mice, 0.6 mg CA intranasally, 24 h): significantly decreased
- LPS-induced inflammation (NF-kB bioluminescence) ([13]; NF-kB transgenic Balb/c mice, 0.6 mg CA intranasally 15 minutes post-stimulation, 24 hours): markedly reduced
- IL-6 production [14]: significant reduction
- IL-6 production [15]: significant reduction
- adverse effects [16]: no adverse effects
- overall fecal microbial composition (Aitchison distance) ([16]; day 0, 7, 14): no differences
